These results are taken from US7001983B1, “Antipathogenic synthetic peptides and compositions comprising them” (priority 1997, dated 2006).

Values after ≈ are worked out from the molar mass of the structure shown. Square brackets hold non-standard residues; d marks the D form. Peptide text beside a SMILES is read from it.

Data set [1] deals with Micrococcus Iuteus ATCC 9341. As to the kind of experiment: Antibacterial activity (MIC), growth inhibition in LB medium. In kind it is cell-based, Micrococcus luteus. The following applies: 100% inhibition of growth after 18–20 h. The procedure: (viii) Antibacterial activity of the peptides. The antibacterial activity of the diastereomers was examined in sterile 96-well plates (Nunc F96 microtiter plates) in a final volume of 100 μL as follows: Aliquots (50 μl) of a suspension containing bacteria at a concentration of 10^6 Colony-Forming Units (CFU)/ml LB (Lauria broth) medium were added to 50 μL of water or 66% pooled normal human serum in PBS, containing the peptide in 2-fold serial dilutions. Growth inhibition was determined by measuring the absorbance at 492 nm with a Microplate autoreader E1309 (Bio-tek Instruments), following incubation for 18–20 h at 37° C. […] The bacteria used were: Escherichia coli D21, Pseudomonas aeruginosa ATCC 27853, Acinetobacter calcoaceticus Ac11, Salmonella typhimurium LT2, Bacillus megaterium Bm11, Micrococcus Iuteus ATCC 9341, Bacillus subtilis ATCC 6051.

In data set [2] the test system is Pseudomonas aeruginosa ATCC 27853. The following applies: 100% inhibition of growth after 18–20 h. As for the experimental part: (viii) Antibacterial activity of the peptides.
Antibacterial activity of the mixtures was determined as described in Experimental procedures, section (xii).

Data set [3] can be described thus: CD spectroscopy, α-helix content. It is filed as physicochemical. The following applies: CD in 40% TFE. As for the experimental part:
(vii) CD Spectroscopy. The CD spectra of the peptides were measured with a Jasco J-500A spectropolarimeter after calibrating the instrument with (+)-10-camphorsulfonic acid. The spectra were scanned at 23° C. in a capped, quartz optical cell with a 0.5 mm path length. Spectra were obtained at wavelengths of 250 to 190 nm. Eight scans were taken for each peptide at a scan rate of 20 nm/min. […] Fractional helicities (Greenfield and Fasman, 1969; Wu et al., 1981) were calculated as follows: [formula] where [θ]222 is the experimentally-observed mean residue ellipticity at 222 nm, and the values for [θ]^0222 and [θ]^100222, which correspond to 0% and 100% helix content at 222 nm, are estimated to be 2000 and 32000 deg·cm^2/dmole,
1.2 Determination of the secondary structure of the peptides. The secondary structures of the peptides 1, 8, 12, 14, were evaluated from their CD spectra in 40% TFE, a solvent that strongly promotes an α-helical structure, as described in Experimental Procedures, section (vii), and in PBS (35 mM phosphate buffer/0.15 M NaCl, pH 7.0).

The nature of data set [4]: Membrane permeation, diffusion potential assay. The following applies: dissipation of diffusion potential. As for the experimental part:
(xi) Membrane permeation induced by the peptides. Membrane permeation was assessed utilizing the diffusion potential assay (Loew et al., 1983; Sims et al., 1974) as previously described (Shai et al., 1991). In a typical experiment, in a glass tube, 4 μl of a liposomes suspension (final phospholipids concentration of 33 μM), in a K^+ containing buffer (50 mM K2SO4, 25 mM HEPES-SO4^−2, pH 6.8), was diluted in 1 ml of an isotonic K^+ free buffer (50 mM Na2SO4, 25 mM HEPES-SO4^−2, pH 6.8), and the fluorescent, potential-sensitive dye diS-C2-5 was then added. Valinomycin (1 μl of 10^−7 M) was added to the suspension in order to slowly create a negative diffusion potential inside the vesicles, which led to a quenching of the dye's fluorescence. Once the fluorescence had stabilized, which took 3–10 minutes, peptides were added. The subsequent dissipation of the diffusion potential, as reflected by an increase in fluorescence, was monitored on a Perkin Elmer LS-50B spectrofluorometer, with the excitation set at 620 nm, the emission at 670 nm, and the gain adjusted to 100%. The percentage of fluorescence recovery, Ft, was defined as: Ft=(It−I0/If−I0)×100 where I0=the initial fluorescence, If=the total fluorescence observed before the addition of valinomycin, and It=the fluorescence observed after adding the peptide at time t.
2.5.1 Membrane permeability induced by the peptides. […]

The conditions of data set [5]: phosphatidylglycerol/phosphatidylcholine; Beschiaschvili and Seelig, 1990; cited from earlier work.
The test system of data set [6] is Escherichia coli D21. In kind it is cell-based. The note with it: 100% inhibition of growth after 18–20 h.
In data set [7] the test system is Acinetobacter calcoaceticus Ac11. It is filed as cell-based. The following applies: 100% inhibition of growth after 18–20 h.
The test system of data set [8] is Bacillus megaterium Bm11. It is filed as cell-based. The following applies: 100% inhibition of growth after 18–20 h.
For data set [9], the system named is Bacillus subtilis ATCC 6051. It is filed as cell-based. The note with it: 100% inhibition of growth after 18–20 h.
Data set [10] has as its system human red blood cells (hRBC). As to the kind of experiment: Hemolysis of human red blood cells. It is filed as cell-based. The note with it: for % hemolysis at 50 μM peptide: 30 min at 37° C. In a few lines: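 Washed fresh erythrocytes at 5% v/v final in PBS pH 7.3 exposed to peptide 30 min at 37° C with agitation. Hemoglobin release read as supernatant absorbance at 540 nm after centrifugation, scaled between PBS (0%) and 1% Triton (100%).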

For data set [11], the system named is Candida albicans (IP886-65). The data set can be described thus: Antifungal activity (MIC). It is filed as cell-based. The note with it: 100% inhibition of growth after 48 h at 30° C. The procedure:
(§1) The antifungal activity of the pardaxin-derived peptides 1 and 16 (see Example 1 above) was examined in sterile 96-well plates (Nunc F96 microtiter plates) in a final volume of 100 μL as follows: Fifty microliters of a suspension containing fungi at concentration of 1×10^6 Colony-Forming Units (CFU)/ml in culture medium (Sabouraud's glucose broth medium) was added to 50 μL of water containing the peptide in serial 2-fold dilutions in water. Inhibition of growth was determined by measuring the absorbance at 492 nm with a Microplate autoreader E1309 (Bio-tek Instruments), after an incubation time of 48 h at 30° C. […] The fungi used were: Candida albicans (IP886-65) and Cryptococcus neoformans (IP960-67).

The subject of data set [12] is Cryptococcus neoformans (IP960-67). As to the kind of experiment: Antifungal activity (MIC). It is filed as cell-based. The note with it: 100% inhibition of growth after 48 h at 30° C. The procedure:
as §1

For data set [13], the system named is Leishmania mexicana NR strain promastigotes. As to the kind of experiment: Anti-Leishmania activity, counting living promastigotes. In kind it is cell-based. The note with it: 100% death after 24 h of incubation. As for the experimental part:
The melittin-derived diastereomer peptide 20 (see Example 2 above) and the Leu/Lys diastereomer peptide 23 (see Example 3 above) were tested against Leishmania. Promastigotes of the Leishmania mexicana NR strain to be assayed were cultured at 27° C. in RPMI 1640 medium supplemented with 10% fetal bovine serum. Parasite were harvested by centrifugation at 1200×g for 10 min at 4° C. and washed twice with PBS (50 mM sodium phosphate, 150 mM NaCl, pH 7). The washed promastigotes were counted in a hemocytometer and adjusted to 1×10^6 parasites/ml. Aliquotes of this suspension were assayed in a final volume of 100 μl by counting living (motile) cells after 24 h of incubation at 26° C. in the absence or presence of various concentrations of the diastereomers.

The subject of data set [14] is Sendai virus (Z strain). The following applies: no release of hemoglobin after incubation 37° C. 60 min.
Description: Sendai virus (Z strain) was grown in the allantoic sac of 10–11 day old embryonated chicken eggs, harvested 48 h after injection and purified. The virus was resuspended in buffer composed of 160 mM NaCl, 20 mM tricine, pH 7.4, and stored at −70° C. Virus haemagglutinating activity was measured in haemagglutinating units (HAU). One microliter contained ˜60000 HAU. Fresh human blood was obtained from a blood bank and stored for up to 1 month at 4° C. Prior to use, erythrocytes were washed twice with PBS pH 7.2, and diluted to the desired concentration (% v/v) with the same buffer. Virions, erythrocytes and peptides were mixed in different orders of addition and various amounts. The final incubation was always at 37° C. for 60 min. followed by centrifugation at 5700 g for 10 min to remove intact cells. In all cases duplicate samples were used and two aliquots were taken from the supernatant of each sample to two wells of a 96-well plate. The amount of hemoglobin release was monitored by measuring the absorbance of the wells with the ELISA, plate reader at 540 nm. Antiviral activity was expressed as the minimal inhibitory concentration (MIC), the concentration at which no release of hemoglobin was observed after incubation.
In data set [15] the test system is human red blood cells (hRBC). The following applies: Oren and Shai, 1996; cited from earlier work.

As to `CC[C@H](C)[C@H](NC(=O)CN)C(=O)NCC(=O)N[C@@H](C)C(=O)N[C@H](C(=O)N[C@@H](CC(C)C)C(=O)N[C@@H](CCCCN)C(=O)N[C@H](C(=O)N[C@@H](CC(C)C)C(=O)N[C@H](C(=O)N[C@H](C(=O)NCC(=O)N[C@@H](CC(C)C)C(=O)N1CCC[C@H]1C(=O)N[C@@H](C)C(=O)N[C@@H](CC(C)C)C(=O)N[C@H](C(=O)N[C@@H](CO)C(=O)N[C@@H](Cc1c[nH]c2ccccc12)C(=O)N[C@H](C(=O)N[C@@H](CCCCN)C(=O)N[C@@H](CCCNC(=N)N)C(=O)N[C@@H](CCCCN)C(=O)N[C@@H](CCCNC(=N)N)C(=O)N[C@@H](CCC(N)=O)C(=O)N[C@@H](CCC(N)=O)C(N)=O)[C@@H](C)CC)[C@@H](C)CC)[C@@H](C)O)[C@@H](C)O)C(C)C)C(C)C` [Melittin], the “Minimal Inhibitory Concentration M. luteus (ATCC 9341)” value in data set [1] was 0.4 µM. For the same molecule, the “Minimal Inhibitory Concentration P. aeruginosa (ATCC 27853)” value in data set [2] was determined as 25 µM. Moreover, the α-helix content in data set [3] was determined as 73%. For the same molecule, the “membrane permeating activity with PC (zwitterionic) vesicles” value in data set [4] is reported as “highly active”. Moreover, the “partition coefficient reported for melittin binding” value in [5] is listed as 4.5±0.6×10^4 M^−1.
For `CC[C@H](C)[C@H](NC(=O)[C@H](CCCCN)NC(=O)[C@H]1CCCN1C(=O)[C@@H](NC(=O)[C@H](CC(C)C)NC(=O)[C@H](C)NC(=O)[C@H](Cc1ccccc1)NC(=O)[C@H](Cc1ccccc1)NC(=O)CN)[C@@H](C)CC)C(=O)N[C@H](C(=O)N[C@@H](CO)C(=O)N[C@@H](CO)C(=O)N1CCC[C@H]1C(=O)N[C@@H](CC(C)C)C(=O)N[C@@H](Cc1ccccc1)C(=O)N[C@@H](CCCCN)C(=O)N[C@H](C(=O)N[C@H](CC(C)C)C(=O)N[C@H](CC(C)C)C(=O)N[C@@H](CO)C(=O)N[C@@H](C)C(=O)N[C@H](C(=O)NCC(=O)N[C@@H](CO)C(=O)N[C@@H](C)C(=O)N[C@@H](CC(C)C)C(=O)N[C@@H](CO)C(=O)N[C@@H](CO)C(=O)N[C@@H](CO)C(=O)NCC(=O)NCC(=O)N[C@@H](CCC(N)=O)C(=O)N[C@@H](CCC(=O)NCCN)C(=O)NCCN)C(C)C)[C@@H](C)O)[C@@H](C)CC` [Peptide 1, [D]P^7L^18L^19-TApar], in data set [6], the “Minimal Inhibitory Concentration E. coli (D21)” value amounted to 6 µM. Moreover, the “Minimal Inhibitory Concentration A. calcoaceticus (Ac11)” value in [7] is 6 µM. For the same molecule, in data set [8], the “Minimal Inhibitory Concentration B. megaterium (Bm11)” value came to 0.9 µM. Further, the “Minimal Inhibitory Concentration M. luteus (ATCC 9341)” value in [1] stood at 12.5 µM. Also, in data set [9], the “Minimal Inhibitory Concentration B. subtilis (ATCC 6051)” value was 3 µM. In addition, the “% hemolysis at 50 μM peptide” value in data set [10] (hRBC) amounted to 5%. Besides, the “hemolytic activity up to the maximum concentration tested” value in data set [10] (hRBC, up to 50 μM) is on record as “practically devoid of hemolytic activity”. The “Minimal Inhibitory Concentration Candida albicans (IP886-65)” value in data set [11] came out at 35 µM. Further, in data set [12], the “Minimal Inhibitory Concentration Cryptococcus neoformans (IP960-67)” value was 50 µM.
Take `CC[C@@H](C)[C@@H](NC(=O)[C@H](CC(C)C)NC(=O)[C@H](C)NC(=O)[C@@H]1CCCN1C(=O)[C@H](CC(C)C)NC(=O)CNC(=O)[C@@H](NC(=O)[C@@H](NC(=O)[C@H](CC(C)C)NC(=O)[C@H](NC(=O)[C@H](CCCCN)NC(=O)[C@H](CC(C)C)NC(=O)[C@H](NC(=O)[C@H](C)NC(=O)CNC(=O)[C@@H](NC(=O)CN)[C@@H](C)CC)C(C)C)C(C)C)[C@@H](C)O)[C@@H](C)O)C(=O)N[C@@H](CO)C(=O)N[C@@H](Cc1c[nH]c2ccccc12)C(=O)N[C@H](C(=O)N[C@H](CCCCN)C(=O)N[C@@H](CCCNC(=N)N)C(=O)NCCN)[C@@H](C)CC` [Peptide 20, [D]-V^5V^8I^17K^21-[1-22]-TAmel]: the “Minimal Inhibitory Concentration E. coli (D21)” value in [6] stood at 8 µM. In addition, in data set [7], the “Minimal Inhibitory Concentration A. calcoaceticus (Ac11)” value is 7 µM. Besides, the “Minimal Inhibitory Concentration B. megaterium (Bm11)” value in data set [8] is 0.8 µM. In data set [1], the “Minimal Inhibitory Concentration M. luteus (ATCC 9341)” value is 29 µM. The “% hemolysis at 50 μM peptide” value in [10] (hRBC) is listed as 0%. Further, in [13], the “MIC Leishmania mexicana” value is 32 µM (≈ 75.2 µg/mL).
`CC(C)C[C@H](NC(=O)[C@H](CCCCN)NC(=O)[C@@H](CC(C)C)NC(=O)[C@@H](CC(C)C)NC(=O)[C@H](CC(C)C)NC(=O)[C@@H](N)CCCCN)C(=O)N[C@@H](CC(C)C)C(=O)N[C@H](CC(C)C)C(=O)N[C@@H](CCCCN)C(=O)N[C@H](CC(C)C)C(=O)N[C@@H](CC(C)C)C(=O)N[C@@H](CCCCN)C(N)=O` [Peptide 23, [D]-L^3,4,8,10-K4L8] (H-KL[dL][dL]KLL[dL]K[dL]LK-NH2): in data set [10], the “hemolytic activity in comparison to melittin (fold less)” value is greater than 100 fold. Further, the “% hemolysis at 100 μM” value in data set [10] (red cells of human, 100) was found to be 0%. Moreover, in data set [13], the “MIC Leishmania mexicana” value was 17 µM (≈ 24.4 µg/mL). In addition, the “MIC Sendai virus” value in data set [14] was found to be 80 µM (≈ 115 µg/mL).
For Pardaxin, the “hemolytic activity towards human erythrocytes relative to melittin (fold less)” value in [15] was 40–100 fold.
